Square brackets hold non-standard residues; d marks the D form. Peptide text beside a SMILES is read from it. * marks the point of attachment. dPhe(4-NHCONH2) = NC(=O)Nc1ccc(C[C@@H](N)C(=O)O)cc1; Dihydroorotyl(S) = O=C1C[C@@H](C(=O)*)NC(=O)N1; dPhe(4-Cl) = N[C@H](Cc1ccc(Cl)cc1)C(=O)O; Phe(4-NH2) = Nc1ccc(C[C@H](N)C(=O)O)cc1; d2Nal = N[C@H](Cc1ccc2ccccc2c1)C(=O)O; Lys(iPr) = CC(C)NCCCC[C@H](N)C(=O)O; d3Pal = N[C@H](Cc1cccnc1)C(=O)O
Key:
testosterone = assay: Serum testosterone concentration-time profile (LC-MS/MS), clinical trial; type: in vivo, men; details: for Mean time to second return of testosterone to baseline interval (after the second administration): only hypothetical (calculated, not measured)
patients with BPH = assay: Prostate volume by transrectal ultrasound, clinical trial; type: in vivo, men
From the text: 2] Efficacy Endpoints—the measured Peak Urinary Flow, Post-void Residual Volume, and Prostate Volume.
After the initial 6-week treatment period of the exploratory study had been completed, a 12-month follow-up period looking at long-term efficacy commenced. Interim data of the main efficacy variables (IPSS, IPSS Global QoL, prostate volume, urinary flow, and post-void residual volume—measured as set out below) after 6 months' follow-up are also presented herein Table 1, 2, 3 FIG. 1b), together with some IPSS data at 9 and 12 months (FIG. 1b).
The prostate volume was measured by transrectal ultrasound with the patient in lateral position. The prostatic gland was sonicated from two directions perpendicular to one another resulting in three cursor positions set by the urologist. The volume was calculated automatically. The investigations were performed by urologists by methods known in the art.

[1] = in vivo
[2] = 16+16 mg group, after the first administration
[3] = 16+16 mg group, after the second administration
[4] = 32+32 mg group, after the first administration
[5] = 32+32 mg group, after the second administration
[6] = first dose of the 32+32 mg group combined with the single dose 32 mg data
[7] = Month 6 follow-up, 32 mg group, n=7
[8] = Month 6 follow-up, 64 mg group, n=4
[9] = Month 6 follow-up, 16+16 mg group, n=6
[10] = Month 6 follow-up, 32+32 mg group, n=7

## CC(=O)N[C@H](Cc1ccc2ccccc2c1)C(=O)N[C@H](Cc1ccc(Cl)cc1)C(=O)N[C@H](Cc1cccnc1)C(=O)N[C@@H](CO)C(=O)N[C@@H](Cc1ccc(NC(=O)[C@@H]2CC(=O)NC(=O)N2)cc1)C(=O)N[C@H](Cc1ccc(NC(N)=O)cc1)C(=O)N[C@@H](CC(C)C)C(=O)N[C@@H](CCCCNC(C)C)C(=O)N1CCC[C@H]1C(=O)N[C@H](C)C(N)=O [Degarelix, D-Alaninamide, N-acetyl-3-(2-naphthalenyl)-D-alanyl-4-chloro-D-phenylalanyl-3-(3-pyridinyl)-D-alanyl-L-seryl-4-[[[(4S)-hexahydro-2,6-dioxo-4-pyrimidinyl]carbonyl]amino]-L-phenylalanyl-4-[(aminocarbonyl)amino]-D-phenylalanyl-L leucyl-N6-(1-methylethyl)-L-lysyl-L-prolyl] (Ac-[d2Nal][dPhe(4-Cl)][d3Pal]S[Phe(4-NH2)](Dihydroorotyl(S))[dPhe(4-NHCONH2)]L[Lys(iPr)]P[dA]-NH2)
testosterone; 32 mg group
  Mean minimal value of testosterone (Cnadir): 0.9 ng/mL
  Mean time for first return of testosterone to baseline interval after the first administration: 9.1 (SD=5.2) days
  Mean time of testosterone Cnadir (tnadir): 1.3 days
  Number of patients with testosterone below the castration level 0.5 ng/mL at one or more time-points: 3 patients
  Percentage of patients with testosterone below the castration level 0.5 ng/mL at one or more time-points: 25%
  Testosterone greatest change from baseline: -4.2 ng/mL
testosterone; 32 mg group, on Day 1
  Lowest mean testosterone level: 0.9 ng/mL
testosterone; 32 mg group, range 0.0-0.1
  Mean area of testosterone concentrations below 0.5 ng/mL: 0.0 ng·days/mL
testosterone; 64 mg group
  Mean minimal value of testosterone (Cnadir): 0.4 ng/mL
  Mean time of testosterone Cnadir (tnadir): 8.8 days
  Number of patients with testosterone below the castration level 0.5 ng/mL at one or more time-points: 9 patients
  Percentage of patients with testosterone below the castration level 0.5 ng/mL at one or more time-points: 69%
  Testosterone greatest change from baseline: -4.7 ng/mL
testosterone; 64 mg group, of the 8 patients with testosterone <=0.5 ng/mL
  Number of patients still below testosterone 0.5 ng/mL on Day 42: Five
testosterone; 64 mg group, on Day 1
  Lowest mean testosterone level: 0.4 ng/mL
testosterone; 64 mg group, range 0.0-15.2
  Mean area of testosterone concentrations below 0.5 ng/mL: 4.4 ng·days/mL
testosterone; 64 mg group, the other three of 8 patients
  Time for testosterone level to recover above 0.5 ng/mL: ≤ 5 days
testosterone; 16+16 mg administration, the 2 castrated patients
  Duration of castration (testosterone below 0.5 ng/mL): less than 2 days
testosterone; 16+16 mg group
  Mean time for first return of testosterone to baseline interval after the first administration: 6.1 (SD=2.8) days
  Number of patients with testosterone below the castration level 0.5 ng/mL at one or more time-points: 2 patients
  Percentage of patients with testosterone below the castration level 0.5 ng/mL at one or more time-points: 15%
  Testosterone greatest change from baseline: -4.0 ng/mL
  Mean time to second return of testosterone to baseline interval (after the second administration): 19.5 (SD=33.9) days
testosterone; [2]
  Mean minimal value of testosterone (Cnadir): 1.4 ng/mL
  Mean time of testosterone Cnadir (tnadir): 1.1 days
testosterone; [3]
  Mean minimal value of testosterone (Cnadir): 2.0 ng/mL
  Mean time of testosterone Cnadir (tnadir): 4.0 days
testosterone; 16+16 mg group, on Day 1
  Lowest mean testosterone level: 1.4 ng/mL
testosterone; 16+16 mg group, range 0.0-0.0
  Mean area of testosterone concentrations below 0.5 ng/mL: 0.0 ng·days/mL
testosterone; 16+16 and 32 mg groups, 4 of the 5 patients
  Time for testosterone level to recover above 0.5 ng/mL: ≤ 2 days
testosterone; 16+16 and 32 mg groups, the remaining patient of 5
  Time for testosterone level to recover above 0.5 ng/mL: ≤ 4 days
testosterone; 32+32 mg group
  Mean time for first return of testosterone to baseline interval after the first administration: 9.1 (SD=2.6) days
  Number of patients not suppressed below 0.5 ng/mL after the first administration but reaching this level after the second injection: Five
  Number of patients with testosterone below the castration level 0.5 ng/mL at one or more time-points: 9 patients
  Number of subjects that had not regained testosterone levels >0.5 ng/mL at Day 42: Three
  Percentage of patients with testosterone below the castration level 0.5 ng/mL at one or more time-points: 75%
  Testosterone greatest change from baseline: -4.1 ng/mL
  Mean time to second return of testosterone to baseline interval (after the second administration): 64.2 (SD=83.5) days
testosterone; 32+32 mg group, after first administration, 3 of 4 patients
  Time for testosterone level to recover above 0.5 ng/mL: ≤ 2 days
testosterone; [4]
  Mean minimal value of testosterone (Cnadir): 0.6 ng/mL
  Mean time of testosterone Cnadir (tnadir): 3.2 days
testosterone; [5]
  Mean minimal value of testosterone (Cnadir): 0.4 ng/mL
  Mean time of testosterone Cnadir (tnadir): 4.3 days
testosterone; 32+32 mg group, after the second administration, on Day 17
  Lowest mean testosterone level: 0.4 ng/mL
testosterone; 32+32 mg group, of the 9 patients with testosterone <=0.5 ng/mL
  Number of patients with testosterone below 0.5 ng/mL after the first degarelix administration: Four
testosterone; 32+32 mg group, range 0.0-15.3
  Mean area of testosterone concentrations below 0.5 ng/mL: 2.8 ng·days/mL
testosterone; Day 42, 32 mg group
  Mean testosterone level: 5.3 ng/mL
testosterone; Day 42, 64 mg group
  Mean testosterone level: 3.0 ng/mL
testosterone; Day 42, 16+16 mg group
  Mean testosterone level: 4.5 ng/mL
testosterone; Day 42, 32+32 mg group
  Mean testosterone level: 2.7 ng/mL
testosterone; all groups, of the 50 patients, up to Day 42
  Number of patients with testosterone below the castration level 0.5 ng/mL at one or more time-points: 22 patients
testosterone; baseline, 32 mg group
  Mean testosterone level: 5.2 ng/mL
testosterone; baseline, 64 mg group
  Mean testosterone level: 5.2 ng/mL
testosterone; baseline, 16+16 mg group
  Mean testosterone level: 5.5 ng/mL
testosterone; baseline, 32+32 mg group
  Mean testosterone level: 4.5 ng/mL
testosterone; first dose of the 32+32 mg group combined with single dose 32 mg, the 8 castrated patients, generally
  Duration of castration (testosterone below 0.5 ng/mL): 2 to 4 days
testosterone; [6]
  Number of patients castrated (testosterone below 0.5 ng/mL): 8 patients
  Percentage of patients castrated (testosterone below 0.5 ng/mL): 33%
testosterone; groups given a total of 64 mg degarelix compared to the total dose 32 mg
  Testosterone area below and time to return to the baseline interval, total 64 mg vs total 32 mg: more than 2 fold
Patients with BPH; Baseline of 6-month follow-up patients, 32 mg group, n=7
  Mean (SD) Prostate Volume: 45.9 (n = 7) mL
Patients with BPH; Baseline of 6-month follow-up patients, 64 mg group, n=4
  Mean (SD) Prostate Volume: 38.7 (n = 4) mL
Patients with BPH; Baseline of 6-month follow-up patients, 16+16 mg group, n=6
  Mean (SD) Prostate Volume: 40.8 (n = 6) mL
Patients with BPH; Baseline of 6-month follow-up patients, 32+32 mg group, n=7
  Mean (SD) Prostate Volume: 37.1 (n = 7) mL
Patients with BPH; Baseline, 32 mg group, N=12
  Mean (SD) Prostate Volume: 48.7 (21.0) mL
Patients with BPH; Baseline, 64 mg group, N=13
  Mean (SD) Prostate Volume: 38.9 (9.0) mL
Patients with BPH; Baseline, 16+16 mg group, N=13
  Mean (SD) Prostate Volume: 42.0 (12.1) mL
Patients with BPH; Baseline, 32+32 mg group, N=12
  Mean (SD) Prostate Volume: 38.1 (7.1) mL
Patients with BPH; Day 42, 32 mg group
  Prostate Volume Change from Baseline: −13.9 (14.7) mL
  Prostate Volume Percentage Change from Baseline: −25.1 (18.0) %
Patients with BPH; Day 42, 64 mg group
  Prostate Volume Change from Baseline: −8.2 (10.2) mL
  Prostate Volume Percentage Change from Baseline: −19.7 (23.2) %
Patients with BPH; Day 42, 16+16 mg group
  Prostate Volume Change from Baseline: −7.5 (7.7) mL
  Prostate Volume Percentage Change from Baseline: −17.0 (16.7) %
Patients with BPH; Day 42, 32+32 mg group
  Prostate Volume Change from Baseline: −9.4 (9.3) mL
  Prostate Volume Percentage Change from Baseline: −23.5 (20.9) %
Patients with BPH; [7]
  Prostate Volume Change from Baseline: −11.6 (5.1) mL
  Prostate Volume Percentage Change from Baseline: −25.6 (8.0) %
Patients with BPH; [8]
  Prostate Volume Change from Baseline: −9.7 (10.4) mL
  Prostate Volume Percentage Change from Baseline: −21.5 (20.6) %
Patients with BPH; [9]
  Prostate Volume Change from Baseline: −11.2 (4.4) mL
  Prostate Volume Percentage Change from Baseline: −27.8 (8.7) %
Patients with BPH; [10]
  Prostate Volume Change from Baseline: −10.6 (8.8) mL
  Prostate Volume Percentage Change from Baseline: −27.1 (17.3) %
[1]
  Degarelix Cmax and AUC values: higher Cmax and AUC values
